Starred links: 1 amine or outer side, 2 acyl side, 3 side chain; linkers in the order of their positions; H or OH if unused. Positions of bridges follow the written chain, without caps; N, C: chain ends. Non-standard residues stand in square brackets, D forms with d. Residues, ends and D or L forms follow the SMILES beside them. *: point of attachment. X62 = C[N+]1(CCCCc2cn(-c3ccc(C[C@H](N[*:1])C(=O)[*:2])cc3)nn2)CCOCC1; X43 = C[N+](C)(C)CCCCCc1cn(-c2ccc(C[C@H](N[*:1])C(=O)[*:2])cc2)nn1; X27 = C[N+](C)(C)CCc1cn(-c2ccc(C[C@H](N[*:1])C(=O)[*:2])cc2)nn1; Me3N+(CH2)2O(CH2)2O(CH2)2CO = C[N+](C)(C)CCOCCOCCC(=O)*; Trp(7-Me) = Cc1cccc2c(C[C@H](N)C(=O)O)c[nH]c12; d(hLys(Me3)) = C[N+](C)(C)CCCCC[C@@H](N)C(=O)O; Hexanoyl(6-NMe3+) = C[N+](C)(C)CCCCCC(=O)*; 2Nal = N[C@@H](Cc1ccc2ccccc2c1)C(=O)O; 3Pal = N[C@@H](Cc1cccnc1)C(=O)O; Cit = NC(=O)NCCC[C@H](N)C(=O)O; Lys(Me) = CNCCCC[C@H](N)C(=O)O; Pen = CC(C)(S)[C@H](N)C(=O)O; Thp = NC1(C(=O)O)CCOCC1; X3 = C[N+](C)(C)CCCCC*; Aib = CC(C)(N)C(=O)O; Sar = CNCC(=O)O
How the values were obtained:
IL-23R = biological target: T1, IL-23R (Homo sapiens, UniProt Q5VWK5); experiment: IL23R Reporter Assay; format: cell-based; details: HEK293 cells containing IL-23R, IL-12RP1 and STAT-inducible firefly luciferase reporter; 10 ng/mL IL-23 (EC90); 5 h at 37° C.; read-out: IL23R Reporter Assay
T1 construct: host or cells: HEK293
T1 sequence (Q5VWK5 24-629): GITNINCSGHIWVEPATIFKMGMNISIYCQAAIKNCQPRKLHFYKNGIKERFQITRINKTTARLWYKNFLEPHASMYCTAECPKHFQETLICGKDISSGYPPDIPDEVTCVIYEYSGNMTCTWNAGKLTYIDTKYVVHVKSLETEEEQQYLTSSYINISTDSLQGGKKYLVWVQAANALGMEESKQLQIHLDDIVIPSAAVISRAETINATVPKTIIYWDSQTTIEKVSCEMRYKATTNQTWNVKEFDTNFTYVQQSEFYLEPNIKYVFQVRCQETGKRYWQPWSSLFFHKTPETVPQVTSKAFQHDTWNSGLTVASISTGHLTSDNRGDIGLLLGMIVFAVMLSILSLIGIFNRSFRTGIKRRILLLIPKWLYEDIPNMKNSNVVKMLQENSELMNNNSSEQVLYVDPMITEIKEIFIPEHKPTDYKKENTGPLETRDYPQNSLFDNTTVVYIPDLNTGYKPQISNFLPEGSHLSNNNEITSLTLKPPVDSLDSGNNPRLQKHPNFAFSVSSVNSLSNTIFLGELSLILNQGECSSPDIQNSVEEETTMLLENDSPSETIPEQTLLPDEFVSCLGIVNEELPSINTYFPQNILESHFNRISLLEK

[1] = Exposed Polar Surface Area (EPSA); format: physicochemical; details: SFC on Chirex 3014 column; sample 1 mM DMSO stock; read-out: EPSA
How it was run: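 Compounds, as 1 mM DMSO stock, were injected in duplicate onto an SFC Chirex 3014 column at 35 °C and eluted with a CO2/methanol (20 mM ammonium formate) gradient. EPSA values in Å^2 were derived from retention times using a linear fit to eight calibration standards, reinjected every 20 compounds.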

| SMILES | IC50 (IL-23R) [nM] | EPSA [1] [A^2] |
| --- | --- | --- |
| CC(=O)N(C)CCCC[C@@H]1NC(=O)[C@H](Cc2c[nH]c3c(C)cccc23)NC(=O)[C@H]([C@@H](C)O)NC(=O)[C@H](CC(=O)N(C)C)NC(=O)[C@@H](NC(=O)CCOCCOCC[N+](C)(C)C)C(C)(C)SSC(C)(C)[C@@H](C(=O)N[C@@H](Cc2ccc(-n3cc(CC[N+](C)(C)C)nn3)cc2)C(=O)N[C@@H](Cc2ccc3ccccc3c2)C(=O)NC2(C(=O)N[C@@H](CCCCN(C)C(C)=O)C(=O)N[C@@H](CC(N)=O)C(=O)N[C@@H](Cc3cccnc3)C(=O)N(C)CC(=O)N(C)C)CCOCC2)NC1=O [compound 333, cPEG3aCO-Pen(3)-N(N(Me)2)-T-7MeW-K(NMeAc)-Pen(3)-F(4TzlTMA2)-2Nal-THP-K(NMeAc)-N-3Pya-Sar-CON(Me)2] ({Me3N+(CH2)2O(CH2)2O(CH2)2CO}-[Pen]D(NMe2)T[Trp(7-Me)][Lys(Me)](Ac)[Pen][X27][2Nal][Thp][Lys(Me)](Ac)N[3Pal][Sar]-NMe2; disulfide 1-6) | 1.8 | 159 |
| CC(=O)N(C)CCCC[C@@H]1NC(=O)[C@H](Cc2c[nH]c3c(C)cccc23)NC(=O)[C@H]([C@@H](C)O)NC(=O)[C@H](CC(=O)N(C)C)NC(=O)[C@@H](NC(=O)CCOCCOCC[N+](C)(C)C)C(C)(C)SSC(C)(C)[C@@H](C(=O)N[C@@H](Cc2ccc(-n3cc(CCCCC[N+](C)(C)C)nn3)cc2)C(=O)N[C@@H](Cc2ccc3ccccc3c2)C(=O)NC2(C(=O)N[C@@H](CCCCN(C)C(C)=O)C(=O)N[C@@H](CC(N)=O)C(=O)N[C@@H](Cc3cccnc3)C(=O)N(C)CC(=O)N(C)C)CCOCC2)NC1=O [compound 335, cPEG3aCO-Pen(3)-N(N(Me)2)-T-7MeW-K(NMeAc)-Pen(3)-F(4TzlTMA5)-2Nal-THP-K(NMeAc)-N-3Pya-Sar-CON(Me)2] ({Me3N+(CH2)2O(CH2)2O(CH2)2CO}-[Pen]D(NMe2)T[Trp(7-Me)][Lys(Me)](Ac)[Pen][X43][2Nal][Thp][Lys(Me)](Ac)N[3Pal][Sar]-NMe2; disulfide 1-6) | 1.2 | 153 |
| CC(=O)N(C)CCCC[C@@H]1NC(=O)[C@H](Cc2c[nH]c3c(C)cccc23)NC(=O)[C@H]([C@@H](C)O)NC(=O)[C@H](CC(=O)N(C)C)NC(=O)[C@@H](NC(=O)CCOCCOCC[N+](C)(C)C)C(C)(C)SSC(C)(C)[C@@H](C(=O)N[C@@H](Cc2ccc(-n3cc(CCCC[N+]4(C)CCOCC4)nn3)cc2)C(=O)N[C@@H](Cc2ccc3ccccc3c2)C(=O)NC2(C(=O)N[C@@H](CCCCN(C)C(C)=O)C(=O)N[C@@H](CC(N)=O)C(=O)N[C@@H](Cc3cccnc3)C(=O)N(C)CC(=O)N(C)C)CCOCC2)NC1=O [compound 336, cPEG3aCO-Pen(3)-N(N(Me)2)-T-7MeW-K(NMeAc)-Pen(3)-F(4TzlMMo4)-2Nal-THP-K(NMeAc)-N-3Pya-Sar-CON(Me)2] ({Me3N+(CH2)2O(CH2)2O(CH2)2CO}-[Pen]D(NMe2)T[Trp(7-Me)][Lys(Me)](Ac)[Pen][X62][2Nal][Thp][Lys(Me)](Ac)N[3Pal][Sar]-NMe2; disulfide 1-6) | 1.5 | 156 |
| CC(=O)N(C)CCCC[C@@H]1NC(=O)[C@H](Cc2c[nH]c3c(C)cccc23)NC(=O)[C@H]([C@@H](C)O)NC(=O)[C@H](CC(=O)N(C)C)NC(=O)[C@@H](NC(=O)CCOCCOCC[N+](C)(C)C)C(C)(C)SSC(C)(C)[C@@H](C(=O)N[C@@H](Cc2ccc(OCCCCC[N+](C)(C)C)cc2)C(=O)N[C@@H](Cc2ccc3ccccc3c2)C(=O)NC(C)(C)C(=O)N[C@@H](CCCCN(C)C(C)=O)C(=O)N[C@@H](CC(N)=O)C(=O)N[C@@H](Cc2cccnc2)C(=O)N(C)CC(=O)N(C)C)NC1=O [compound 341, cPEG3aCO-Pen(3)-N(N(Me)2)-T-7MeW-K(NMeAc)-Pen(3)-TMAPF-2Nal-Aib-K(NMeAc)-N-3Pya-Sar-CON(Me)2] ({Me3N+(CH2)2O(CH2)2O(CH2)2CO}-[Pen]D(NMe2)T[Trp(7-Me)][Lys(Me)](Ac)[Pen]Y(X3)[2Nal][Aib][Lys(Me)](Ac)N[3Pal][Sar]-NMe2; disulfide 1-6) | 0.97 | 153 |
| CC(=O)N(C)CCCC[C@@H]1NC(=O)[C@H](Cc2c[nH]c3c(C)cccc23)NC(=O)[C@H]([C@@H](C)O)NC(=O)[C@H](CC(=O)N(C)C)NC(=O)[C@@H](NC(=O)CCCCC[N+](C)(C)C)C(C)(C)SSC(C)(C)[C@@H](C(=O)N[C@@H](Cc2ccc(OCCCCC[N+](C)(C)C)cc2)C(=O)N[C@@H](Cc2ccc3ccccc3c2)C(=O)NC2(C(=O)N[C@@H](CCCCN(C)C(C)=O)C(=O)N[C@@H](CC(N)=O)C(=O)N[C@@H](Cc3cccnc3)C(=O)N(C)CC(=O)N(C)C)CCOCC2)NC1=O [compound 343, 5cpaCO-Pen(3)-N(N(Me)2)-T-7MeW-K(NMeAc)-Pen(3)-TMAPF-2Nal-THP-K(NMeAc)-N-3Pya-Sar-CON(Me)2] ({Hexanoyl(6-NMe3+)}-[Pen]D(NMe2)T[Trp(7-Me)][Lys(Me)](Ac)[Pen]Y(X3)[2Nal][Thp][Lys(Me)](Ac)N[3Pal][Sar]-NMe2; disulfide 1-6) | 2 | 156 |
| CC(=O)N[C@H](CCCCC[N+](C)(C)C)C(=O)N[C@@H]1C(=O)N[C@@H](CC(=O)N(C)C)C(=O)N[C@@H]([C@@H](C)O)C(=O)N[C@@H](Cc2c[nH]c3c(C)cccc23)C(=O)N[C@@H](CCCCN(C)C(C)=O)C(=O)N[C@H](C(=O)N[C@@H](Cc2ccc(OCCCCC[N+](C)(C)C)cc2)C(=O)N[C@@H](Cc2ccc3ccccc3c2)C(=O)NC2(C(=O)N[C@@H](CCCCN(C)C(C)=O)C(=O)N[C@@H](CC(N)=O)C(=O)N[C@@H](Cc3cccnc3)C(=O)N(C)CC(=O)N(C)C)CCOCC2)C(C)(C)SSC1(C)C [compound 344, MeCO-hk(Me)3-Pen(3)-N(N(Me)2)-T-7MeW-K(NMeAc)-Pen(3)-TMAPF-2Nal-THP-K(NMeAc)-N-3Pya-Sar-CON(Me)2] (Ac-[d(hLys(Me3))][Pen]D(NMe2)T[Trp(7-Me)][Lys(Me)](Ac)[Pen]Y(X3)[2Nal][Thp][Lys(Me)](Ac)N[3Pal][Sar]-NMe2; disulfide 2-7) | 6.6 | 158 |
| CC(=O)N(C)CCCC[C@H](NC(=O)C1(NC(=O)[C@H](Cc2ccc3ccccc3c2)NC(=O)[C@H](Cc2ccc(OCCCCC[N+](C)(C)C)cc2)NC(=O)[C@H]2NC(=O)[C@H](CCCNC(N)=O)NC(=O)[C@H](Cc3c[nH]c4c(C)cccc34)NC(=O)[C@H]([C@@H](C)O)NC(=O)[C@H](CC(=O)N(C)C)NC(=O)[C@@H](NC(=O)CCOCCOCC[N+](C)(C)C)C(C)(C)SSC2(C)C)CCOCC1)C(=O)N[C@@H](CC(N)=O)C(=O)N[C@@H](Cc1cccnc1)C(=O)N(C)CC(=O)N(C)C [compound 346, cPEG3aCO-Pen(3)-N(N(Me)2)-T-7MeW-Cit-Pen(3)-TMAPF-2Nal-THP-K(NMeAc)-N-3Pya-Sar-CON(Me)2] ({Me3N+(CH2)2O(CH2)2O(CH2)2CO}-[Pen]D(NMe2)T[Trp(7-Me)][Cit][Pen]Y(X3)[2Nal][Thp][Lys(Me)](Ac)N[3Pal][Sar]-NMe2; disulfide 1-6) | 1.8 | 158 |
